Reference: patent US20100330093A1, “TREATMENT OF MELANOMA WITH ALPHA THYMOSIN PEPTIDES IN COMBINATION WITH ANTIBODIES AGAINST CYTOTOXIC T LYMPHOCYTE-ASSOCIATED ANTIGEN 4 (CTLA4)” (SciClone Pharmaceuticals, Inc., priority 2007, published 2010)
No end group written: not given here.

How the values were obtained:
[1] = test system: murine B16 melanoma cells; assay: Subcutaneous murine B16 melanoma tumor model in C57BL/6 mice (tumor volume, tumor weight); format: in vivo; details: for percent inhibition of tumor weight (PITW): Day 16 necropsy, DTIC 5 mg/kg s.c. daily, TA-1 6 mg/kg s.c. daily, 9H10 i.p. Day 3 (100 μg), Day 6 (50 μg), Day 9 (50 μg), vs vehicle
Description: (§1) C57BL/6 mice were implanted subcutaneously with murine B16 melanoma cells (Cell Culture Center, Institute of Basic Medical Sciences, Peking Union Medical College and Chinese Academy of Medical Sciences PUMC&CAMS, Beijing, P.R.China), followed by treatment with TA-1 or DTIC alone or in combination for 14 consecutive days. The day of tumor implantation was defined as Day 0. Meanwhile 9H10 was given in two groups via i.p. on Day 3, 6 and 9. TA-1 and DTIC were administered daily by s.c. injection. In total, 5 groups of mice (n=10) were used: Group 1: vehicle; Group 2: DTIC 5 mg/kg; Group 3: TA-1 6 mg/kg; Group 4: DTIC 5 mg/kg+9H10 (Day 3 (100 μg), Day 6 (50 μg), Day 9 (50 μg)); Group 5: DTIC 5 mg/kg+TA-1 6 mg/kg+9H10 (Day 3 (100 μg), Day 6 (50 μg), Day 9 (50 μg)) (Table 1). The animals were six weeks old and weighed between 18 and 22 grams at the start of the study. Tumor volume and body weight were measured every three days, and tumor weights were measured on Day 16 at the end of the study.
Phosphate buffered saline (PBS) was used as the negative control article (vehicle). TA-1 solution was stored at 2-8° C. and used up in one week. DTIC(SIGMA) was initially dissolved in 0.01 N HCl and then diluted with PBS to 1 mg/mL. DTIC dosing solution was kept on ice, protected from light, and used within one day. Final dosing solutions were prepared on the day of use by diluting the stock solution to 1× with water. The antibody reagent 9H10 (EBIOSCIENCE) was a ready-to-use agent at a concentration of 1 mg/mL.
Mortality and moribundity were checked twice daily, the body weights were recorded once every 3 days, and tumors were measured using a caliper once every 3 days. […]
Based on the tumor size, the tumor volume (TV) was calculated with the formula: [TV=(Length×Width×Width)/2]. And the percent inhibition (PI) of TV (PITV) was calculated according to the equation below: […]
The anti-tumor effect of the test article was further evaluated with tumor weight (TW) measured on day of necropsy (Day 16). The PI of TW was calculated using the equation below: […]

[2] = Body weight of B16 tumor-bearing C57BL/6 mice during treatment; format: in vivo; details: TA-1 6 mg/kg s.c. daily, alone or in combination, throughout the course of the study
Description: as §1
Mortality and moribundity were checked twice daily, the body weights were recorded once every 3 days, and tumors were measured using a caliper once every 3 days. At the end of the study (Day 16), the animals were euthanized by CO2 asphyxiation, and the tumors were excised and weighed.

Row | Compound | percent inhibition of tumor weight (PITW) [1] | mice with palpable tumors ([1]; Day 9, n=10 per group) | loss of body weight [2]
1 | CN(C)/N=N/c1[nH]cnc1C(N)=O [DTIC, dacarbazine, reference compound] | 28.41% |  | 
2 | thymosin alpha 1 (Ac-SDAAVDTSSEITTKDLKEKKEVVEEAEN; ends and bridges not checked; UniProt P06454 2-29, looked up) [TA-1, 28 amino acid peptide with a molecular weight of 3108, initially isolated from Thymosin Fraction 5] | 43.35% | most mice | did not cause any loss of body weight
